The record followed here is ChEMBL document CHEMBL4414679, “Discovery of 4,6-pyrimidinediamine derivatives as novel dual EGFR/FGFR inhibitors aimed EGFR/FGFR1-positive NSCLC” (Eur J Med Chem, 2020).

The target of test [1] is T1, Epidermal growth factor receptor (Homo sapiens, UniProt P00533). Description: Inhibition of N-terminal GST-tagged human EGFR cytoplasmic domain (669-1210 AA) expressed in baculovirus at 10 uM using FAM-labelled peptide as substrate pre-incubated for 10 mins followed by substrate addition by mobility shift assay relative to control.
T1 sequence (P00533 whole entry, the tested form may be a part): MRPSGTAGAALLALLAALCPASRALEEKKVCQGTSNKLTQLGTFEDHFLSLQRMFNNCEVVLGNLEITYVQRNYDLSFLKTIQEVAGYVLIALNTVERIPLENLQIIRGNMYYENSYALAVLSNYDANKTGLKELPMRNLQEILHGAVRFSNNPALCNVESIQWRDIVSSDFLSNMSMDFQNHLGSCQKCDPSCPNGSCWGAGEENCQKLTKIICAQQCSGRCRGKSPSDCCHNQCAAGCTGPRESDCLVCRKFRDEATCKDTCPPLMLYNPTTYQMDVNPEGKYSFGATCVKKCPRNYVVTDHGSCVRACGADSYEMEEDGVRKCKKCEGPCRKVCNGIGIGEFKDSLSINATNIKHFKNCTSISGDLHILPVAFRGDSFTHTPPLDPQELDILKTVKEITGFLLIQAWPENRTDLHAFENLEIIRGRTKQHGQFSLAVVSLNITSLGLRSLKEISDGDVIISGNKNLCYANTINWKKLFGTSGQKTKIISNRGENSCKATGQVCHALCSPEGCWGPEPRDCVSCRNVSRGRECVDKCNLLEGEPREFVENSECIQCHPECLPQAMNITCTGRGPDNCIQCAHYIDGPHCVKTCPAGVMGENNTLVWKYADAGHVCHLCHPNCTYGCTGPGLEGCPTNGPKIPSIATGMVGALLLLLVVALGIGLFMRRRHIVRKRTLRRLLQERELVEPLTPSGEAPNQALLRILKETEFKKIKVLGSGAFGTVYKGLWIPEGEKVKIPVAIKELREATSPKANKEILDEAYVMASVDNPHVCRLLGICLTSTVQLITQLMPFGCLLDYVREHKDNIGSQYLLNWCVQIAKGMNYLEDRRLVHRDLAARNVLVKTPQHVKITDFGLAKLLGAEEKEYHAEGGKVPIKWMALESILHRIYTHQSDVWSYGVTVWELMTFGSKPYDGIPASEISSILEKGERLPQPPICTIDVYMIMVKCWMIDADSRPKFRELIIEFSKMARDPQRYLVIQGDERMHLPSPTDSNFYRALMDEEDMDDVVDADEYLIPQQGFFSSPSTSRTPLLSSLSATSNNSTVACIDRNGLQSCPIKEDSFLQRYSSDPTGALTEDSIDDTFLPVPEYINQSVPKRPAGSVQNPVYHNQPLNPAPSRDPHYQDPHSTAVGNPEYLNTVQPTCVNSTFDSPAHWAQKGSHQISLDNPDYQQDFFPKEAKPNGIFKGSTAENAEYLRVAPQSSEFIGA
In test [2] the target is T1, Epidermal growth factor receptor. Put plainly: Inhibition of N-terminal GST-tagged human EGFR (d746-750AA) expressed in baculovirus at 10 uM using FAM-labelled peptide as substrate pre-incubated for 10 mins followed by substrate addition by mobility shift assay relative to control.
Test [3] relates to Epidermal growth factor receptor (Homo sapiens), P00533 [L858R]. Description: Inhibition of recombinant human EGFR L858R mutant expressed in baculovirus at 10 uM using FAM-labelled peptide as substrate pre-incubated for 10 mins followed by substrate addition by mobility shift assay relative to control.
Epidermal growth factor receptor (Homo sapiens), P00533 [L858R], sequence (P00533 whole entry L858R, the tested form may be a part): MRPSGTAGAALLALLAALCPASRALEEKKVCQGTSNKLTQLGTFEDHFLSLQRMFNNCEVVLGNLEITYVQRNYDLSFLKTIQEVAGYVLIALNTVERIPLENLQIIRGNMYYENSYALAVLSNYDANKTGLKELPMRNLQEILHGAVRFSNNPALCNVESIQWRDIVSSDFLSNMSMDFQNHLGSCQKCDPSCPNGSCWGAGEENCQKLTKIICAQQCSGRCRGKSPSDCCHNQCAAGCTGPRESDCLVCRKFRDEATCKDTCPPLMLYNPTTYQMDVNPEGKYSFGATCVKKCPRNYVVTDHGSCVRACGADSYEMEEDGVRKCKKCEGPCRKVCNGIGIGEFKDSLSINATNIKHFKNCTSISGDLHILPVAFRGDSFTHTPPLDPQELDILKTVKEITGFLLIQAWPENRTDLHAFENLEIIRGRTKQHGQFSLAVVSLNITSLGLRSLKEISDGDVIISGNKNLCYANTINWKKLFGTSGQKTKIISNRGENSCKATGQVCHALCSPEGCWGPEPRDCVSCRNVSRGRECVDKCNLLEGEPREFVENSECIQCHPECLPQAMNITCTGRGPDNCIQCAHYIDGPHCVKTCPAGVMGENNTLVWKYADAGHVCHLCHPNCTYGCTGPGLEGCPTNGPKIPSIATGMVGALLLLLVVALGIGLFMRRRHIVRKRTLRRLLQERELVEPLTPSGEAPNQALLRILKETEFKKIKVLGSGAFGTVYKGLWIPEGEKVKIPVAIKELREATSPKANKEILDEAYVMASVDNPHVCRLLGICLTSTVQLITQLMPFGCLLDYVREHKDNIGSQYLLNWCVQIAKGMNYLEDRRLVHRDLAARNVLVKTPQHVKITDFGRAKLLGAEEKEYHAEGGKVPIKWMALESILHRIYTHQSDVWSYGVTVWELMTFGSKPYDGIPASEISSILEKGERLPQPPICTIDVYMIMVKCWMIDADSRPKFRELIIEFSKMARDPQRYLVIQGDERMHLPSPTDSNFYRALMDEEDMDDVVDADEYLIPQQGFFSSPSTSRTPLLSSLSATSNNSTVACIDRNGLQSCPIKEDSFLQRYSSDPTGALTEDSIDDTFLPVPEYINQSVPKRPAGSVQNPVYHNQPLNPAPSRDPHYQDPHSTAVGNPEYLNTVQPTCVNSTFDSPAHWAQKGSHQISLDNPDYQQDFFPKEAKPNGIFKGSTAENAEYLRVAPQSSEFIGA
Test [4] has as its target Fibroblast growth factor receptor 1 (Homo sapiens, UniProt P11362). Put plainly: Inhibition of N-terminal GST-tagged human FGFR1 cytoplasmic domain (398-822 AA) expressed in baculovirus at 10 uM using FAM-labelled peptide as substrate pre-incubated for 10 mins followed by substrate addition by mobility shift assay relative to control.
In a further test the test system is HCC827. Put plainly: Antiproliferative activity against human HCC827 cells assessed as inhibition of cell growth at 10 uM incubated for 48 hrs by MTT assay relative to control. It is filed as functional. To be noted: HCC827, 48 h.
The test system of the next test is PC-9. Put plainly: Antiproliferative activity against human PC9 cells assessed as inhibition of cell growth at 10 uM incubated for 48 hrs by MTT assay relative to control. To be noted: PC-9, 48 h. It is filed as functional. On the technique in general: Formazan colour is commonly taken as a measure of viable cells.
A further test has as its system NCI-H520. Description: Antiproliferative activity against human NCI-H520 cells assessed as inhibition of cell growth at 10 uM incubated for 48 hrs by MTT assay relative to control. The class given is functional. As to conditions: NCI-H520, 48 h.
Another test concerns NCI-H1581. Put plainly: Antiproliferative activity against human NCI-H1581 cells assessed as inhibition of cell growth at 10 uM incubated for 48 hrs by MTT assay relative to control. The class given is functional. As to conditions: NCI-H1581, 48 h.
The test system of the next test is NCI-H226. Put plainly: Antiproliferative activity against human NCI-H226 cells assessed as inhibition of cell growth at 10 uM incubated for 48 hrs by MTT assay relative to control. It is filed as functional. To be noted: NCI-H226, 48 h.

Fibroblast growth factor receptor 1, sequence (P11362 22-822 limits assumed): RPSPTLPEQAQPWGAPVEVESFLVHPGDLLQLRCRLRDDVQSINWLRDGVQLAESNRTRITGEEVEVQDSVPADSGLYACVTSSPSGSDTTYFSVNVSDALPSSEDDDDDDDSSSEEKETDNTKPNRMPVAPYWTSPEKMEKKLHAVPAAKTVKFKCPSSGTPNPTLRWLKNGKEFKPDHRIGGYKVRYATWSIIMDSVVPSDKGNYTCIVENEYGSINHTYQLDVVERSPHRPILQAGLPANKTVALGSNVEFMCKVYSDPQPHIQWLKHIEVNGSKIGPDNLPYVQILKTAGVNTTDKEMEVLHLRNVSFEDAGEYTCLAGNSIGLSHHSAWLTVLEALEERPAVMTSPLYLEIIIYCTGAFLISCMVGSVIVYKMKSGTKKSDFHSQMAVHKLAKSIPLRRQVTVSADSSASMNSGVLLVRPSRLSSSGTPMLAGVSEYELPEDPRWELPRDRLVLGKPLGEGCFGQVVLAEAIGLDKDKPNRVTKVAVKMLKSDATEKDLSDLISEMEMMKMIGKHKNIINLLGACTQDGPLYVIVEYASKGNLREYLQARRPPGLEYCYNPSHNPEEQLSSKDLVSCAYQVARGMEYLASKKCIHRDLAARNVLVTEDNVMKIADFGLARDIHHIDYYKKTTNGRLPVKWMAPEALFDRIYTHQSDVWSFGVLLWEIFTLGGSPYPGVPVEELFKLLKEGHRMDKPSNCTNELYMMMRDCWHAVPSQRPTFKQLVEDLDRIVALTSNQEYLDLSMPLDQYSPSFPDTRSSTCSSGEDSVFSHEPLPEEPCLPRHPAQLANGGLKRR

The term inhibition denotes the change of the read-out against control, counted positive when it falls. Take `COc1cc(Br)ccc1Nc1cc(NC(=O)Nc2c(Cl)cccc2Cl)ncn1`: the inhibition turned out to be 65.6% in [1], 75.9% in test [2], 83.2% in test [3] and 12.6% in test [4]. Moreover, the inhibition at 10 µM stood at 42.7% in the test on HCC827; 90.5% with PC-9; 29.1% in the test on NCI-H520; 47.3% in the test with NCI-H1581; 43% with NCI-H226.
Turning to `COc1ccc(Br)cc1Nc1cc(NC(=O)Nc2c(Cl)cccc2Cl)ncn1`, the inhibition in test [1] came out at 87.3%; in [2] it was 93.5%; in test [3] it was 95.9%; in test [4] it was 37.8%. Further, the inhibition at 10 µM is 53% in the test on HCC827; 69% in the test on PC-9; 45% in the test with NCI-H520; 53.3% with NCI-H1581; 33% in the test with NCI-H226.
Take `COc1cc(NC(=O)Nc2cc(Nc3cc(OC)cc(C(F)(F)F)c3)ncn2)cc(OC)c1`: the inhibition in [1] is 18.5%; in test [2], 27.5%; in test [3], 48.6%; in test [4], -1.7%. Besides, the inhibition at 10 µM was 57.7% with HCC827; 88.1% in the test with PC-9; 36.5% in the test on NCI-H520; 50.7% in the test with NCI-H1581; 56% in the test with NCI-H226.
On to `COc1ccc(C(F)(F)F)cc1Nc1cc(NC(=O)Nc2c(Cl)cccc2Cl)ncn1`, for which the inhibition in test [1] worked out at 77.5%; in test [2], 73%; in test [3], 83.1%; in test [4] it was 55.4%. Further, the inhibition at 10 µM in the test with HCC827 is 68.7%; in the test with PC-9 it was 89%; in the test on NCI-H520, 33%; in the test on NCI-H1581 it was 69%; in the test on NCI-H226, 60.1%.
Turning to `COc1cc(NC(=O)Nc2cc(Nc3ccc(F)c(Cl)c3)ncn2)cc(OC)c1`, the inhibition in test [1] came out at 46.7%; in [2], 52.8%; in test [3] it was 69.1%; in test [4] it was 1%. Further, the inhibition at 10 µM in the test with HCC827 is 53%; in the test with PC-9, 77.5%; in the test on NCI-H520, 25.5%; with NCI-H1581, 53%; in the test with NCI-H226, 36.7%.
On to `COc1ccc(F)cc1Nc1cc(NC(=O)Nc2c(Cl)cccc2Cl)ncn1`, for which the inhibition in [1] is 39.2%; in test [2], 48.7%; in test [3] it was 63.3%; in [4] it was 11.1%. The inhibition at 10 µM in the test on HCC827 came to 78%; in the test with PC-9 it was 85.5%; in the test with NCI-H520 it was 38%; with NCI-H1581 it was 73.1%; in the test on NCI-H226 it was 31.3%.
`COc1cc(NC(=O)Nc2cc(Nc3ccc(OC)c(I)c3)ncn2)cc(OC)c1`: the inhibition in [1] was determined as 31.4%; in test [2], 43.6%; in [3] it was 46%; in [4] it was 10.3%. Moreover, the inhibition at 10 µM in the test on HCC827 was found to be 61.7%; in the test on PC-9 it was 47%; in the test on NCI-H520, 46.5%; in the test on NCI-H1581 it was 43%; with NCI-H226 it was 40.1%.
As for `COc1ccc(Nc2cc(NC(=O)Nc3c(Cl)cccc3Cl)ncn2)cc1C`, the inhibition in [1] stood at 47.3%; in [2], 67.4%; in test [3], 76.4%; in test [4], 50.4%. Moreover, the inhibition at 10 µM stood at 63.1% with HCC827; 80.1% in the test on PC-9; 29.1% in the test on NCI-H520; 45% with NCI-H1581; 50% in the test with NCI-H226.
For `CC(C)(C)c1ccc(Nc2cc(NC(=O)Nc3c(Cl)cccc3Cl)ncn2)cc1`, the inhibition in test [1] is 48.2%; in test [2], 63.2%; in test [3], 71.8%; in [4], 30.4%. Further, the inhibition at 10 µM in the test on HCC827 was found to be 42.3%; in the test on PC-9 it was 41.5%; with NCI-H520, 22%; in the test on NCI-H1581, 71.3%; in the test with NCI-H226, 40%.
In the case of `COc1cc(NC(=O)Nc2cc(Nc3cc(Br)ccc3OC)ncn2)cc(OC)c1`, the inhibition in test [1] is 51.4%; in [2] it was 45.2%; in [3], 52.4%; in [4] it was -1.5%. In addition, the inhibition at 10 µM came to 76.3% with HCC827; 82.5% in the test with PC-9; 43.5% with NCI-H520; 23.1% with NCI-H1581; 42.7% in the test on NCI-H226.
On to `CCc1ccc(Nc2cc(NC(=O)Nc3c(Cl)cccc3Cl)ncn2)cc1`, for which the inhibition in test [1] was determined as 79%; in test [2], 89.2%; in [3] it was 89.4%; in test [4] it was 47.3%. Moreover, the inhibition at 10 µM with HCC827 is 58%; in the test with PC-9, 70%; with NCI-H520, 31.5%; in the test with NCI-H1581, 38.1%; with NCI-H226, 39.5%.
As for `COc1cc(NC(=O)Nc2cc(Nc3cccc(C(C)(C)C)c3)ncn2)cc(OC)c1`, the inhibition was 17.1% in test [1], 10.4% in [2], 29.3% in test [3] and 5.2% in test [4]. Further, the inhibition at 10 µM in the test with HCC827 came to 48.7%; with PC-9, 68%; in the test with NCI-H520, 13.1%; in the test with NCI-H1581, 35%; with NCI-H226 it was 40%.
Take `CCc1ccc(Nc2cc(NC(=O)Nc3cc(OC)cc(OC)c3)ncn2)cc1`: the inhibition in test [1] stood at 25.4%; in [2], 28.1%; in [3], 45.7%; in test [4], 6.1%. The inhibition at 10 µM with HCC827 turned out to be 66.2%; in the test with PC-9 it was 78%; with NCI-H520 it was 23.5%; in the test with NCI-H1581, 32.7%; in the test on NCI-H226, 50.1%.
Consider `COc1cc(NC(=O)Nc2cc(Nc3ccc(C)c(C)c3)ncn2)cc(OC)c1`, for which the inhibition in test [1] came out at 54.1%; in test [2] it was 43.4%; in [3], 39.5%; in [4], 21.3%. In addition, the inhibition at 10 µM is 45.7% in the test on HCC827; 66% in the test on PC-9; 29.5% in the test on NCI-H520; 20.1% with NCI-H1581; 45.3% with NCI-H226.
Take `Cc1ccc(Nc2cc(NC(=O)Nc3c(Cl)cccc3Cl)ncn2)cc1C`: the inhibition in test [1] is 64.8%; in test [2] it was 58.6%; in test [3] it was 63.8%; in test [4], 45.3%. Besides, the inhibition at 10 µM with HCC827 amounted to 84.3%; with PC-9, 92.1%; with NCI-H520, 47.5%; with NCI-H1581, 73.3%; with NCI-H226, 41.3%.
For the compound `COc1cc(NC(=O)Nc2cc(Nc3ccc(C(C)(C)C)cc3)ncn2)cc(OC)c1`, the inhibition in [1] was -1.1%; in test [2], -0.2%; in test [3], 2.7%; in test [4] it was -0.7%. Besides, the inhibition at 10 µM in the test on HCC827 was found to be 32.7%; in the test on PC-9, 74.1%; with NCI-H520, 17.5%; with NCI-H1581 it was 38.7%; in the test on NCI-H226, 47.7%.
Take `COc1cc(Nc2cc(NC(=O)Nc3c(Cl)cccc3Cl)ncn2)cc(C(F)(F)F)c1`: the inhibition in test [1] amounted to 40%; in test [2], 48.4%; in test [3] it was 69.3%; in test [4], 0.9%. Besides, the inhibition at 10 µM was found to be 57.7% in the test with HCC827; 88.5% with PC-9; 23.1% with NCI-H520; 32.3% in the test with NCI-H1581; 33.1% in the test on NCI-H226.
Take `Cc1ccc(Nc2cc(NC(=O)Nc3c(Cl)cccc3Cl)ncn2)cc1F`: the inhibition in test [1] came out at 77.8%; in test [2] it was 87.1%; in [3], 67.2%; in test [4] it was 51%. For the same compound, the inhibition at 10 µM in the test on HCC827 was 85.3%; in the test on PC-9, 92%; in the test with NCI-H520 it was 33.5%; in the test on NCI-H1581, 45.3%; with NCI-H226, 40.7%.
Turning to `O=C(Nc1cc(Nc2ccc(F)c(Cl)c2)ncn1)Nc1c(Cl)cccc1Cl`, the inhibition in test [1] was 94.3%; in [2], 96.7%; in test [3], 97%; in [4], 27.6%. The inhibition at 10 µM was found to be 53.7% in the test on HCC827; 91.1% in the test with PC-9; 39.5% with NCI-H520; 67% in the test with NCI-H1581; 47.3% with NCI-H226.
For the compound `O=C(Nc1cccc(Nc2cc(Nc3cccc(C(F)(F)F)c3)ncn2)c1)C1CC1`, the inhibition at 10 µM in the test with HCC827 stood at 94.7%; with PC-9 it was 90.5%; with NCI-H520, 30%; in the test with NCI-H1581 it was 26%; with NCI-H226, 52.7%.
